Experimental data: ChEMBL document CHEMBL3227999, “Synthesis and biological properties of N2-substituted spin-labeled analogues of actinomycin D” (J Med Chem, 1979)
Active and inactive are the calls of the source. The rule behind the calls is not given here.

How the values were obtained:
Mus musculus [1] = assay: Toxicity in mouse P388 cells allografted CDF1 mouse assessed as weight loss at 6 mg/kg, ip administered on day 1, 5 and 9; type: organism-based; parameters: dose 6 mg/kg, route intraperitoneal; settings: in vivo
[2] = target: Bacterial DNA-directed RNA polymerase (Bacteria, UniProt P0A7Z4+P0A800+P0A8T7+P0A8V2); assay: Inhibition of Escherichia coli DNA-dependent RNA polymerase; type: protein-complex assay
Mus musculus [3] = assay: Toxicity in mouse P388 cells allografted CDF1 mouse assessed as mortality at 6 mg/kg, ip administered on day 1, 5 and 9; type: organism-based; parameters: dose 6 mg/kg, route intraperitoneal; settings: in vivo
Mus musculus [4] = assay: Toxicity in mouse P388 cells allografted CDF1 mouse assessed as weight loss at 4 mg/kg, ip administered on day 1, 5 and 9; type: organism-based; parameters: dose 4 mg/kg, route intraperitoneal; settings: in vivo
P388 [5] = assay: Antitumor activity against mouse P388 cells allografted in CDF1 mouse assessed as survival at 1.2 mg/kg, ip administered on day 1, 5 and 9; type: functional; settings: route intraperitoneal
[6] = target: T1, Bacterial DNA-directed RNA polymerase (Bacteria) (UniProt P0A8V2+P0A7Z4+P0A8T7+P0A800); assay: Inhibition of Escherichia coli DNA-dependent RNA polymerase at 20 ug/ml using Micrococcus luteus DNA as primer; type: protein-complex assay
T1 sequence (P0A7Z4 whole entry partner): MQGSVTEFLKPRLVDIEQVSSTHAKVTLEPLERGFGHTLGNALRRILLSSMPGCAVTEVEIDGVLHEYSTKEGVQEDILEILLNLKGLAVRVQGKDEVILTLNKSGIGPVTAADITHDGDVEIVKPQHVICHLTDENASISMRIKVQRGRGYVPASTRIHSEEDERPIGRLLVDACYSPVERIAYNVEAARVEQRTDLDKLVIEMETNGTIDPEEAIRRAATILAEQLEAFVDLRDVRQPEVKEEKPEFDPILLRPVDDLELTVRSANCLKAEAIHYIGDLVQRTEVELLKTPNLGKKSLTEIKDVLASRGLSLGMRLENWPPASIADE
T1 sequence (P0A800 2-91 partner limits assumed): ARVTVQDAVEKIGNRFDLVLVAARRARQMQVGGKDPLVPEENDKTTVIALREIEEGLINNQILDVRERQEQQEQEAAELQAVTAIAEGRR
T1 sequence (P0A8T7 whole entry partner): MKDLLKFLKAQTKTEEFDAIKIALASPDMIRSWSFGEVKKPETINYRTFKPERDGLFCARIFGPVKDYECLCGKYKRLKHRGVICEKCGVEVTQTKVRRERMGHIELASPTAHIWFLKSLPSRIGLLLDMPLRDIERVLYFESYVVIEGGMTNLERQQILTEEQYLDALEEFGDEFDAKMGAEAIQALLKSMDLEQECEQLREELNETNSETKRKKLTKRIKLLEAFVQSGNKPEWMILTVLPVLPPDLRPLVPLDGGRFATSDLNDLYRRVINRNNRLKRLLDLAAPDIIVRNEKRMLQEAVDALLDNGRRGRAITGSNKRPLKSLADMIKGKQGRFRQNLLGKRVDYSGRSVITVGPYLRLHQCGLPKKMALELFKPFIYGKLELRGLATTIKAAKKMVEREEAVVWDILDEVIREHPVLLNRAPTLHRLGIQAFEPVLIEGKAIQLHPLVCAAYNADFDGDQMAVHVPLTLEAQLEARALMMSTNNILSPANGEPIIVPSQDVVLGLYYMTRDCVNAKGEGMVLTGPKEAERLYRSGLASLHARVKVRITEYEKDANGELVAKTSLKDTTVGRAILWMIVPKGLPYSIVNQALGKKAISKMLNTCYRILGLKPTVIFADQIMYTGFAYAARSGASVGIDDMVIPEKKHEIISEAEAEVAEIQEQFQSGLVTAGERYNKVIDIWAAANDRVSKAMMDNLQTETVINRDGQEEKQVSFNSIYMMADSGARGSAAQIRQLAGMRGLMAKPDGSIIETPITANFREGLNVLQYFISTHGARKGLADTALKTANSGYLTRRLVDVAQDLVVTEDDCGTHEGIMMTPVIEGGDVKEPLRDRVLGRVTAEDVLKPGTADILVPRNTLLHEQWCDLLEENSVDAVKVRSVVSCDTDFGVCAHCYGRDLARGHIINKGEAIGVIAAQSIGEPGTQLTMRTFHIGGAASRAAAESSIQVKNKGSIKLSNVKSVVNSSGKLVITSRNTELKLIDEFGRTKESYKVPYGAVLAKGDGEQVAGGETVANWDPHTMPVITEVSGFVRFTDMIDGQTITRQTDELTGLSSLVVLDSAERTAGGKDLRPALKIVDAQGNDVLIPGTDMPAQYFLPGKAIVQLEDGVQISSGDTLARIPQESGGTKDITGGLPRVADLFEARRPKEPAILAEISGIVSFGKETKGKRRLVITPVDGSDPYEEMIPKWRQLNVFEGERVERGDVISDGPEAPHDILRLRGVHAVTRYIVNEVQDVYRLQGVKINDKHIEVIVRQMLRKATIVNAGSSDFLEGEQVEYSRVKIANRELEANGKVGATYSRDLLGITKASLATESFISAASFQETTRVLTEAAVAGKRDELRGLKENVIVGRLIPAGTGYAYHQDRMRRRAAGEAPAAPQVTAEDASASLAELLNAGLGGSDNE
T1 sequence (P0A8V2 whole entry): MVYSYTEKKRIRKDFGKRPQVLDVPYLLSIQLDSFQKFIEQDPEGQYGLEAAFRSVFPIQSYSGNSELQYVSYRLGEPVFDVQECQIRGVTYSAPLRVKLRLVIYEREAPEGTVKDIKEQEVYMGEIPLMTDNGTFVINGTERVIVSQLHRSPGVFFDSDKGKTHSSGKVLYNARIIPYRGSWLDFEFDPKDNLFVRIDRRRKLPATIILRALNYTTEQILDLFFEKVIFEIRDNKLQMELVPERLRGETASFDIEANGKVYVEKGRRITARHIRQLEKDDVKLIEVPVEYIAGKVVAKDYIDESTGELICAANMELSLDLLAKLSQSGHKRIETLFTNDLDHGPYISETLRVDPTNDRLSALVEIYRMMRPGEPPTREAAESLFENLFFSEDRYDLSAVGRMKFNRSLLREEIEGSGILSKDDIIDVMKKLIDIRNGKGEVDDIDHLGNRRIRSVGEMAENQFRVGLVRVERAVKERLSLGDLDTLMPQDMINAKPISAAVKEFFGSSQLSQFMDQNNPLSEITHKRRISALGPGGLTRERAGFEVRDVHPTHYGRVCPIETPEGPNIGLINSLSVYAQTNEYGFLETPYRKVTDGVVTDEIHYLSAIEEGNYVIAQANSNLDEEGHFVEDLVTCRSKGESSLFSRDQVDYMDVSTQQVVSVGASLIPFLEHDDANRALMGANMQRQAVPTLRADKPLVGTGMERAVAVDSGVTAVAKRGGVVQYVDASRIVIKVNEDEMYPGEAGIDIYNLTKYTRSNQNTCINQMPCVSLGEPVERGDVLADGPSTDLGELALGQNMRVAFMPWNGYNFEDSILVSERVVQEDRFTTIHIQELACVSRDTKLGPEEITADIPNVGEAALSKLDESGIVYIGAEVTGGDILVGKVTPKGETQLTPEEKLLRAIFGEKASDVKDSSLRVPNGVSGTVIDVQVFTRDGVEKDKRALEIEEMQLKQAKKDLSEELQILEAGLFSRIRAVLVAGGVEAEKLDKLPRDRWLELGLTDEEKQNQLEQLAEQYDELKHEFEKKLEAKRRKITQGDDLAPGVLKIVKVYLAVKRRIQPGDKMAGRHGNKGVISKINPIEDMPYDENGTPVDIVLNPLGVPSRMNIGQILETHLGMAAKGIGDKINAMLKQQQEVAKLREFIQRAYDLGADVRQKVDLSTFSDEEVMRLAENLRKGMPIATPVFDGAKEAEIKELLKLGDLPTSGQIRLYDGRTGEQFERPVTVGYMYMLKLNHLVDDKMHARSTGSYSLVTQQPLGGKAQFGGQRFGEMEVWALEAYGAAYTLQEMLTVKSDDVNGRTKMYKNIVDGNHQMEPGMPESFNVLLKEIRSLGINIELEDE

P388 [7] = assay: Antitumor activity against mouse P388 cells allografted in CDF1 mouse assessed as survival at 6 mg/kg, ip administered on day 1, 5 and 9; type: functional; settings: route intraperitoneal
Calf thymus DNA [8] = assay: Binding affinity to calf thymus DNA at 1 x 10^-5 M after 30 mins by circular dichroism analysis; type: nucleic-acid assay; settings: Bos taurus
P388 [9] = assay: Antitumor activity against mouse P388 cells allografted in CDF1 mouse assessed as survival at 4 mg/kg, ip administered on day 1, 5 and 9; type: functional; settings: route intraperitoneal
L1210 [10] = assay: Cytotoxicity against mouse L1210 cells at 0.05 ug/ml after 48 hrs; type: functional; settings: L1210, 48 h
L1210 [11] = assay: Cytotoxicity against mouse L1210 cells at 1 ug/ml after 48 hrs; type: functional; settings: L1210, 48 h
P388 [12] = assay: Antitumor activity against mouse P388 cells allografted in CDF1 mouse assessed as survival at 2.7 mg/kg, ip administered on day 1, 5 and 9; type: functional; settings: route intraperitoneal
L1210 [13] = assay: Cytotoxicity against mouse L1210 cells at 0.001 ug/ml after 48 hrs; type: functional; settings: L1210, 48 h
Calf thymus DNA [14] = assay: Binding affinity to calf thymus DNA at 1 x 10^-5 M by thermal denaturation assay; type: nucleic-acid assay; settings: Bos taurus
[15] = target: T1, Bacterial DNA-directed RNA polymerase (Bacteria); assay: Inhibition of Escherichia coli DNA-dependent RNA polymerase at 20 ug/ml using calf thymus DNA as primer; type: protein-complex assay
[16] = target: T1, Bacterial DNA-directed RNA polymerase (Bacteria); assay: Inhibition of Escherichia coli DNA-dependent RNA polymerase at 10 ug/ml using calf thymus DNA as primer; type: protein-complex assay
[17] = target: T1, Bacterial DNA-directed RNA polymerase (Bacteria); assay: Inhibition of Escherichia coli DNA-dependent RNA polymerase at 2.5 ug/ml using calf thymus DNA as primer; type: protein-complex assay
L1210 [18] = assay: Cytotoxicity against mouse L1210 cells at 0.1 ug/ml after 48 hrs; type: functional; settings: L1210, 48 h
L1210 [19] = assay: Cytotoxicity against mouse L1210 cells at 5 ug/ml after 48 hrs; type: functional; settings: L1210, 48 h
P388 [20] = assay: Antitumor activity against mouse P388 cells allografted in CDF1 mouse assessed as survival at 1.8 mg/kg, ip administered on day 1, 5 and 9; type: functional; settings: route intraperitoneal
L1210 [21] = assay: Cytotoxicity against mouse L1210 cells at 0.5 ug/ml after 48 hrs; type: functional; settings: L1210, 48 h
L1210 [22] = assay: Cytotoxicity against mouse L1210 cells at 0.01 ug/ml after 48 hrs; type: functional; settings: L1210, 48 h
P388 [23] = assay: Antitumor activity against mouse P388 cells allografted in CDF1 mouse assessed as survival at 0.8 mg/kg, ip administered on day 1, 5 and 9; type: functional; settings: route intraperitoneal
[24] = target: T1, Bacterial DNA-directed RNA polymerase (Bacteria); assay: Inhibition of Escherichia coli DNA-dependent RNA polymerase at 10 ug/ml using Micrococcus luteus DNA as primer; type: protein-complex assay
[25] = target: T1, Bacterial DNA-directed RNA polymerase (Bacteria); assay: Inhibition of Escherichia coli DNA-dependent RNA polymerase at 5 ug/ml using Micrococcus luteus DNA as primer; type: protein-complex assay
Calf thymus DNA [26] = assay: Binding affinity to calf thymus DNA at 1 x 10^-5 M by lectron spin resonance analysis; type: nucleic-acid assay; settings: Bos taurus
[27] = target: T1, Bacterial DNA-directed RNA polymerase (Bacteria); assay: Inhibition of Escherichia coli DNA-dependent RNA polymerase at 2.5 ug/ml using Micrococcus luteus DNA as primer; type: protein-complex assay
L1210 [28] = assay: Cytotoxicity against mouse L1210 cells at 10 ug/ml after 48 hrs; type: functional; settings: L1210, 48 h
[29] = target: T1, Bacterial DNA-directed RNA polymerase (Bacteria); assay: Inhibition of Escherichia coli DNA-dependent RNA polymerase at 5 ug/ml using calf thymus DNA as primer; type: protein-complex assay

Cc1c2oc3c(C)ccc(C(=O)N[C@@H]4C(=O)N[C@H](C(C)C)C(=O)N5CCC[C@H]5C(=O)N(C)CC(=O)N(C)[C@@H](C(C)C)C(=O)O[C@@H]4C)c3nc-2c(C(=O)N[C@@H]2C(=O)N[C@H](C(C)C)C(=O)N3CCC[C@H]3C(=O)N(C)CC(=O)N(C)[C@@H](C(C)C)C(=O)O[C@@H]2C)c(NCCCNC2CC(C)(C)[N+]([O-])C(C)(C)C2)c1=O
Activity (Mus musculus [1]): Toxic
IC50 [2]: 2730 nM

Cc1c2oc3c(C)ccc(C(=O)N[C@@H]4C(=O)N[C@H](C(C)C)C(=O)N5CCC[C@H]5C(=O)N(C)CC(=O)N(C)[C@@H](C(C)C)C(=O)O[C@@H]4C)c3nc-2c(C(=O)N[C@@H]2C(=O)N[C@H](C(C)C)C(=O)N3CCC[C@H]3C(=O)N(C)CC(=O)N(C)[C@@H](C(C)C)C(=O)O[C@@H]2C)c(NCCNC2CC(C)(C)[N+]([O-])C(C)(C)C2)c1=O
Activity (Mus musculus [3]): Toxic
Activity (Mus musculus [4]): Toxic
IC50 [2]: 2750 nM

Cc1c2oc3c(C)ccc(C(=O)N[C@@H]4C(=O)N[C@H](C(C)C)C(=O)N5CCC[C@H]5C(=O)N(C)CC(=O)N(C)[C@@H](C(C)C)C(=O)O[C@@H]4C)c3nc-2c(C(=O)N[C@@H]2C(=O)N[C@H](C(C)C)C(=O)N3CCC[C@H]3C(=O)N(C)CC(=O)N(C)[C@@H](C(C)C)C(=O)O[C@@H]2C)c(NCCNC2CC(C)(C)N([O])C(C)(C)C2)c1=O
Survival (P388 [5]): 16 days
T/C (P388 [5]): 152%
inhibition [6]: 91%
Survival (P388 [7]): 8 days
T/C (P388 [7]): 76%
Activity (Calf thymus DNA [8]): inactive
Survival (P388 [9]): 25 days
T/C (P388 [9]): 238%
inhibition at 0.05 µg/mL (L1210 [10]): 15%
inhibition at 1 µg/mL (L1210 [11]): 71%
Survival (P388 [12]): 19 days
T/C (P388 [12]): 181%
inhibition at 0.001 µg/mL (L1210 [13]): 0%
ΔTm (Calf thymus DNA [14]): 2.8 °C
inhibition [15]: 88%
inhibition [16]: 81%
inhibition [17]: 43%
inhibition at 0.1 µg/mL (L1210 [18]): 41%
inhibition at 5 µg/mL (L1210 [19]): 98%
Survival (P388 [20]): 17 days
T/C (P388 [20]): 162%
inhibition at 0.5 µg/mL (L1210 [21]): 62%
inhibition at 0.01 µg/mL (L1210 [22]): 0%
Survival (P388 [23]): 19 days
T/C (P388 [23]): 181%
inhibition [24]: 78%
inhibition [25]: 56%
Activity (Calf thymus DNA [26]): inactive
inhibition [27]: 42%
inhibition at 10 µg/mL (L1210 [28]): 99%
inhibition [29]: 61%

Cc1c2oc3c(C)ccc(C(=O)N[C@@H]4C(=O)N[C@H](C(C)C)C(=O)N5CCC[C@H]5C(=O)N(C)CC(=O)N(C)[C@@H](C(C)C)C(=O)O[C@@H]4C)c3nc-2c(C(=O)N[C@@H]2C(=O)N[C@H](C(C)C)C(=O)N3CCC[C@H]3C(=O)N(C)CC(=O)N(C)[C@@H](C(C)C)C(=O)O[C@@H]2C)c(NC2CC(C)(C)N([O])C(C)(C)C2)c1=O
Survival (P388 [5]): 17 days
T/C (P388 [5]): 162%
inhibition [6]: 77%
Survival (P388 [7]): 29 days
T/C (P388 [7]): 276%
Activity (Calf thymus DNA [8]): inactive
Survival (P388 [9]): 26 days
T/C (P388 [9]): 248%
inhibition at 0.05 µg/mL (L1210 [10]): 10%
inhibition at 1 µg/mL (L1210 [11]): 57%
Survival (P388 [12]): 19 days
T/C (P388 [12]): 181%
inhibition at 0.001 µg/mL (L1210 [13]): 0%
ΔTm (Calf thymus DNA [14]): 1.7 °C
inhibition [15]: 78%
inhibition [16]: 62%
inhibition [17]: 37%
inhibition at 0.1 µg/mL (L1210 [18]): 21%
inhibition at 5 µg/mL (L1210 [19]): 96%
Survival (P388 [20]): 20 days
T/C (P388 [20]): 190%
inhibition at 0.5 µg/mL (L1210 [21]): 39%
inhibition at 0.01 µg/mL (L1210 [22]): 0%
Survival (P388 [23]): 17 days
T/C (P388 [23]): 162%
inhibition [24]: 57%
inhibition [25]: 33%
Activity (Calf thymus DNA [26]): inactive
inhibition [27]: 21%
inhibition at 10 µg/mL (L1210 [28]): 98%
inhibition [29]: 41%

Cc1c2oc3c(C)ccc(C(=O)N[C@@H]4C(=O)N[C@H](C(C)C)C(=O)N5CCC[C@H]5C(=O)N(C)CC(=O)N(C)[C@@H](C(C)C)C(=O)O[C@@H]4C)c3nc-2c(C(=O)N[C@@H]2C(=O)N[C@H](C(C)C)C(=O)N3CCC[C@H]3C(=O)N(C)CC(=O)N(C)[C@@H](C(C)C)C(=O)O[C@@H]2C)c(NCCCNC2CC(C)(C)N([O])C(C)(C)C2)c1=O
Survival (P388 [5]): 15 days
T/C (P388 [5]): 143%
inhibition [6]: 62%
Survival (P388 [7]): 29 days
T/C (P388 [7]): 171%
Activity (Calf thymus DNA [8]): Active
Survival (P388 [9]): 18 days
T/C (P388 [9]): 171%
inhibition at 0.05 µg/mL (L1210 [10]): 0%
inhibition at 1 µg/mL (L1210 [11]): 45%
Survival (P388 [12]): 18 days
T/C (P388 [12]): 181%
inhibition at 0.001 µg/mL (L1210 [13]): 0%
ΔTm (Calf thymus DNA [14]): 3.5 °C
inhibition [15]: 79%
inhibition [16]: 49%
inhibition [17]: 28%
inhibition at 0.1 µg/mL (L1210 [18]): 16%
inhibition at 5 µg/mL (L1210 [19]): 69%
Survival (P388 [20]): 19 days
T/C (P388 [20]): 143%
inhibition at 0.5 µg/mL (L1210 [21]): 33%
inhibition at 0.01 µg/mL (L1210 [22]): 0%
Survival (P388 [23]): 15 days
inhibition [24]: 32%
inhibition [25]: 52%
Activity (Calf thymus DNA [26]): Active
inhibition [27]: 22%
inhibition at 10 µg/mL (L1210 [28]): 98%
inhibition [29]: 78%

Cc1c2oc3c(C)ccc(C(=O)N[C@@H]4C(=O)N[C@H](C(C)C)C(=O)N5CCC[C@H]5C(=O)N(C)CC(=O)N(C)[C@@H](C(C)C)C(=O)O[C@@H]4C)c3nc-2c(C(=O)N[C@@H]2C(=O)N[C@H](C(C)C)C(=O)N3CCC[C@H]3C(=O)N(C)CC(=O)N(C)[C@@H](C(C)C)C(=O)O[C@@H]2C)c(NC2CC(C)(C)[N+]([O-])C(C)(C)C2)c1=O
Activity (Mus musculus [1]): Toxic
